Key:
patients with PD = experiment: Analysis of the PPMI database (MDS-UPDRS Part 3 motor progression); assay type: in vivo, human; details: for rate of motor function decline / progression of motor disability: PPMI database, vs controls; for MDS-UPDRS Part 3 Slope of change/month, mean ± S.E.: PPMI, male PD patients, baseline to ~1 year
Text: FIG. 7. TZ and related drugs slow progression of motor defects for patients with PD enrolled in the PPMI database. MDS-UPDRS Part 3 (motor) scores of PD patients in the PPMI database. Patients were taking TZ/DZ/AZ (blue, N=13), tamsulosin (green, N=24), or neither (red, N=269). Data are scores at entry into PPMI through ˜1 year and include all measures between those times. All patients taking these drugs were males prescribed TZ/DZ/AZ or tamsulosin without breaks for benign prostatic hyperplasia or undefined urological problems. Lines are plotted from linear mixed effect regression analyses. By maximum likelihood estimation, TZ/DZ/AZ differed from controls (P=0.012).
FIG. 18. UPDRS scores for 13 patients with PD taking TZ/DZ/AZ. Each set of data points and lines indicates an individual patient. Bold line and shading indicate the linear regression line and 95% confidence intervals for the 13 patients. See legend of FIG. 7 for more information.
We analyzed data from the PPMI database (21) for patients taking TZ alone, TZ/DZ/AZ, or tamsulosin. We tested if these drugs influenced the rate of motor progression as measured by part III of the Movement Disorder Society's Unified Parkinson's Disease Rating Scale ([…]), which is a metric of motor disability in Parkinson's disease (22). For this analysis, only participants who were using TZ/DZ/AZ or tamsulosin at their baseline PPMI visit were included in the drug groups. PPMI protocol dictates that the fourth visit should occur approximately one year after the baseline visit; accordingly, any visit that occurred between the baseline visit and the fourth PPMI visit were included. Participants also had to have more than one visit to be included. Of the 13 participants in the TZ/DZ/AZ group, 11 were taking the medication-of-interest without breaks until their fourth visit. One participant was taking DZ at the time of their baseline visit, but discontinued within 30 days of their baseline visit. That participant was only considered to be using DZ during their first and second visits. Another participant was using AZ at their baseline visit and for approximately 5 months after that. This participant was considered to be taking AZ during their first and second visits. If these two participants were excluded from the analysis and only participants who were taking the medication-of-interest without breaks in therapy were included, the results change only marginally. The TZ/DZ/AZ group (n=11) has a slope of change of 0.02±0.21 compared to 0.53±0.05 in the control group (n=269, p=0.015). […]
Only MDS-UPDRS readings that were obtained when the participants were not yet taking a PD medication or were in the practically defined OFF state (at least 6 hours after the last dose of levodopa or any other anti-PD medication) were utilized for this analysis. […]

[1] = test system: M17 human neuroblastoma cells; experiment: Glycolysis and mitochondrial function in M17 cells
Protocol: Cells were incubated with mild hypoxia for 12 hr before study. Cells were cultured in a sealed chamber (Stemcell Technologies Vancouver, Canada) that was flushed with a humidified gas mixture composed of 5% 02, 5% carbon dioxide (CO2), and 90% nitrogen (N2) for 12 hr. […] Assays of ATP, pyruvate, and citrate synthase activities (CS) were performed according to the manufacturer's instructions.
A Seahorse XV analyzer (XF^e-24, Seahorse Bioscience, Billerica, Mass., USA) was used to measure the oxygen consumption rate (OCR) and the extracellular acidification rate (ECAR) as previously described (18). The M17 cells and iPS cells were seeded in XF^e 24-well plates (Seahorse Bioscience), while the plates used for iPS cells were poly-D-lysine pre-coated. Assay medium was prepared by supplementing Seahorse XF^eBaseMedium minimal DMEM (Seahorse Bioscience) with 2 mM L-glutamine for a Glycolysis Stress Test assay or 2 mM L-glutamine, 1 mM pyruvate and 10 mM glucose for a Mito Stress Test assay (Sigma). pH was adjusted to 7.4 at 37° C. Probes (Seahorse Bioscience) were hydrated in the calibrant (Seahorse Bioscience) in a non-CO2 incubator at 37° C. overnight. Cells were washed twice with assay medium and kept in a non-CO2 incubator at 37° C. for 1 hr before analysis. Glucose, oligomycin and 2-deoxy-glucose (2-DG) were pre-loaded in the probe plate for Glycolysis Stress Test, while oligomycin, FCCP and a mixture of rotenone and antimycin A were used for Mito Stress Test.
Citrate synthase (CS) activity, LDH assay and pyruvate level were detected using commercial kits according to the manufacturer's directions. ATP content in animal tissues and M17 cells were detected with the ATP assay kit following the manufacturer's directions.

Row | SMILES | rate of motor function decline / progression of motor disability (patients with PD) | MDS-UPDRS Part 3 Slope of change/month, mean ± S.E. (patients with PD) | glycolysis ([1]; in vitro, 10 μM, 24 hr (ECAR)) | glycolysis and mitochondrial function ([1]; TZ 10 μM, 24 hr)
1 | CCOc1ccccc1OCCN[C@H](C)Cc1ccc(OC)c(S(N)(=O)=O)c1 [tamsulosin] | failed to slow | 0.39 ± 0.14 | does not enhance | –
2 | COc1cc2nc(N3CCN(C(=O)C4CCCO4)CC3)nc(N)c2cc1OC (stereo not drawn) [TZ, terazosin] | slower | 0.01 ± 0.25 | – | enhances
